Test results from PubChem BioAssay AID1259407 (Chemical Carcinogenesis Research Information System (CCRIS), 2018).
Active and inactive are the calls of the source. No rule for the calls is given here.

System: CCRIS mutagenicity, Ames/micronucleus/aberration tests
Experiment: CCRIS mutagenicity studies

Measured: mutagenic call

Cc1cc(C(C)(C)C)c(O)c(C(C)(C)C)c1
inactive: End Point: IN VITRO CHROMOSOMAL ABERRATIONS, Test System: CHINESE HAMSTER OVARY CELLS, Metabolic Activation: NONE inactive; negative | End Point: IN VITRO CHROMOSOMAL ABERRATIONS, Test System: CHINESE HAMSTER OVARY CELLS, Metabolic Activation: RAT, LIVER, S-9, AROCLOR 1254 inactive; negative; dose-related increase but it was not significant | Test System: AMES SALMONELLA TYPHIMURIUM, Strain/Indicator: TA97, Metabolic Activation: NONE, Method: STANDARD PLATE inactive; negative | Test System: AMES SALMONELLA TYPHIMURIUM, Strain/Indicator: TA97, Metabolic Activation: RAT, LIVER, S-9, AROCLOR 1254, Method: STANDARD PLATE inactive; negative | Test System: AMES SALMONELLA TYPHIMURIUM, Strain/Indicator: TA97, Metabolic Activation: RAT, LIVER, S-9, AROCLOR, Method: STANDARD PLATE inactive; negative | Test System: AMES SALMONELLA TYPHIMURIUM, Strain/Indicator: TA98, Metabolic Activation: NONE, Method: PREINCUBATION inactive; negative | Test System: AMES SALMONELLA TYPHIMURIUM, Strain/Indicator: TA98, Metabolic Activation: NONE, Method: STANDARD PLATE inactive; negative | Test System: AMES SALMONELLA TYPHIMURIUM, Strain/Indicator: TA98, Metabolic Activation: RAT, LIVER, S-9, AROCLOR 1254, Method: STANDARD PLATE inactive; negative | Test System: AMES SALMONELLA TYPHIMURIUM, Strain/Indicator: TA98, Metabolic Activation: RAT, LIVER, S-9, Method: PREINCUBATION inactive; negative | Test System: AMES SALMONELLA TYPHIMURIUM, Strain/Indicator: TA98, Metabolic Activation: S-9, Method: STANDARD PLATE inactive; negative | Test System: AMES SALMONELLA TYPHIMURIUM, Strain/Indicator: TA100, Metabolic Activation: NONE, Method: PREINCUBATION inactive; negative | Test System: AMES SALMONELLA TYPHIMURIUM, Strain/Indicator: TA100, Metabolic Activation: NONE, Method: STANDARD PLATE inactive; negative | Test System: AMES SALMONELLA TYPHIMURIUM, Strain/Indicator: TA100, Metabolic Activation: RAT, LIVER, S-9, AROCLOR 1254, Method: STANDARD PLATE inactive; negative | Test System: AMES SALMONELLA TYPHIMURIUM, Strain/Indicator: TA100, Metabolic Activation: RAT, LIVER, S-9, AROCLOR, Method: STANDARD PLATE inactive; negative | Test System: AMES SALMONELLA TYPHIMURIUM, Strain/Indicator: TA100, Metabolic Activation: RAT, LIVER, S-9, Method: PREINCUBATION inactive; negative | Test System: AMES SALMONELLA TYPHIMURIUM, Strain/Indicator: TA100, Metabolic Activation: S-9, Method: STANDARD PLATE inactive; negative | Test System: AMES SALMONELLA TYPHIMURIUM, Strain/Indicator: TA102, Metabolic Activation: NONE, Method: STANDARD PLATE inactive; negative | Test System: AMES SALMONELLA TYPHIMURIUM, Strain/Indicator: TA102, Metabolic Activation: RAT LIVER S-9, PHENOBARBITAL AND 5,6-BENZOFLAVONE, Method: STANDARD PLATE inactive; negative | Test System: AMES SALMONELLA TYPHIMURIUM, Strain/Indicator: TA102, Metabolic Activation: RAT, LIVER, S-9, AROCLOR, Method: STANDARD PLATE inactive; negative | Test System: AMES SALMONELLA TYPHIMURIUM, Strain/Indicator: TA104, Metabolic Activation: NONE, Method: PREINCUBATION inactive; negative | Test System: AMES SALMONELLA TYPHIMURIUM, Strain/Indicator: TA104, Metabolic Activation: NONE, Method: STANDARD PLATE inactive; negative | Test System: AMES SALMONELLA TYPHIMURIUM, Strain/Indicator: TA104, Metabolic Activation: RAT, LIVER, S-9, AROCLOR, Method: PREINCUBATION inactive; negative | Test System: AMES SALMONELLA TYPHIMURIUM, Strain/Indicator: TA104, Metabolic Activation: RAT, LIVER, S-9, AROCLOR, Method: STANDARD PLATE inactive; negative | Test System: AMES SALMONELLA TYPHIMURIUM, Strain/Indicator: TA2638, Metabolic Activation: RAT LIVER S-9, PHENOBARBITAL AND 5,6-BENZOFLAVONE, Method: STANDARD PLATE inactive; negative | Test System: E. COLI, Strain/Indicator: WP2 (PKM101), Metabolic Activation: RAT LIVER S-9, PHENOBARBITAL AND 5,6-BENZOFLAVONE, Method: STANDARD PLATE inactive; negative | Test System: E.COLI, Strain/Indicator: WP2 UVRA (PKM101), Metabolic Activation: RAT LIVER S-9, PHENOBARBITAL AND 5,6-BENZOFLAVONE, Method: STANDARD PLATE inactive; negative
